In patent US20200129476A1, “PARP Inhibitor in Combination with a Glucocorticoid and/or Ascorbic Acid and/or a Protein Growth Factor for the Treatment of Impaired Wound Healing” (AKRIBES BIOMEDICAL GMBH, priority 2017, published 2020):
“Also recorded” adds a separate entry of the source.

Assays:
[1] = system: primary human dermal fibroblasts (HDF); assay: Primary human dermal fibroblast (HDF) proliferation assay (2D), with or without wound exudate; assay type: cell-based; details: for cell proliferation under wound exudate-induced inhibition: FIG. 22, WE #43 and #78 used with veliparib; for HDF proliferation, PARP inhibitor plus PDGF: PARP inhibitor dose series + PDGF 20 ng/ml, WE #78 (FIG. 18); for enhancement of PARP inhibitor effect on fibroblast proliferation: added to PARP inhibitor titration
Procedure: (§1) Primary human dermal fibroblasts (HDF) were purchased from CELLnTEC, Bern. They were routinely grown in Dulbecco's modified Eagle's medium (DMEM) containing 10% FCS, 2 mM glutamine, and 100 U/ml penicillin/100 μg/ml streptomycin. Media, antibiotics, and glutamine were bought from Lonza. The cells were used at passage 5-15. Cells were trypsinized and seeded at 5000 cells/well in 200 μl into the inner wells of 96-well plates. The outer wells were loaded with sterile water. The cells were allowed to adhere overnight and then incubated for 72 hours at 37° C. under the following conditions: graded compound concentrations or 20 ng/ml PDGF-BB (Tonbo Biosciences) in the absence or presence of different dilutions of sterile-filtered WE in medium. For control samples, 200p1 medium was added instead of specific stimuli. Alternatively, the cells were seeded into 384-well plates at 2500 cells/well directly together with test compounds or growth factors and WE or medium in a total volume of […].
(§2) At the end of the 72-hour incubation period, supernatants were removed for the determination of IL-1ß, and the cells were fixed with 4% paraformaldehyde (Morphisto) for 15 minutes at room temperature and washed 3 times with PBS. A control plate was fixed after the overnight adherence of the cells (day 1) to determine the starting cell number.
Total cellular protein was determined as a measure of cell number by staining the fixed cells with sulforhodamine B (SRB, Sigma). A 0.4% SRB solution in 1% acetic acid was added to the wells for 30 minutes. The wells were then washed with 1 acetic acid until the wash solution remained colorless. After drying, the dye was eluted with 10 mM Tris.HCl, pH8.5, and absorbance was measured either at 550 or 492 nm for lower and higher cell densities, respectively. The average absorbance of the sample representing the day 1 starting cell number (for 96-well plates) was subtracted from the absorbance values of the WE-treated cells.
All experiments were carried out in triplicate for each sample and concentration, and means±standard deviation (SD) were used for the evaluation of the experiment. Results are expressed as percentage of control values for unstimulated cells.
(§3) Low molecular weight compounds (see list in Table 1) were dissolved in DMSO (Bioreagent for cell culture, Sigma) at 10 mM or 100 mM and diluted at least 1:1000 in medium for cellular assays (final DMSO concentration ≤0.1%).
(§4) Cells were incubated with compounds for 72 hours in proliferation assays and up to 8 days for FDM assay (refreshed after 4 days). When compounds were tested for their effect on WE stimulation, the incubation of cells with compounds was started and ended simultaneously with WE-incubation.

IL-1ß = IL-1ß secretion by HDF in the presence of wound exudate (ELISA); assay type: cell-based, human; details: FIG. 22; WE #43 and #78 used with veliparib
Procedure: as §1, §2
IL-1ß levels were determined with a commercial ELISA kit. The amount of IL-1ß contained in the wound exudate added to the cells was subtracted from the total IL-ß in the supernatants in order to determine the cytokine secreted by the cells.

[2] = system: primary human dermal fibroblasts (HDF); assay: Fibroblast-derived matrix (FDM) formation assay (3D), with or without wound exudate; assay type: cell-based; details: for FDM formation, veliparib combined with glucocorticoid: WE #78, patient with diabetes, immunosuppression after kidney transplantation (FIG. 7)
Procedure: HDF cells were seeded at 5000 cells/well on day −3 into 96-well tissue culture plates (1250 cells/well for 384-well plates), which had been pre-coated for 1 hour at 37° C. with 0.2% gelatin solution (Sigma). When the cells reached confluence (=day 0), a matrix promoting supplement (vitamin C: 2-phospho-L-ascorbic acid trisodium salt, 100 μg/ml; Sigma) was added together with test samples containing PDGF-BB, TGF-ß1 or graded concentrations of compounds −/+WE as described for the HDF proliferation assay. After 4 days, medium was replaced by fresh vitamin C- and stimulus- as well as compound-containing medium, maintaining the conditions initiated on day 0. TGF-ß1 and PDGF-BB were included as positive controls to promote FDM formation and cell growth, respectively. After a total incubation time of 8 days, FDM production was measured in fixed cultures via SRB staining and evaluated as described above. In some cases, the experiment was stopped and evaluated already on day 4.
as §3, with “≤0.1%). Compounds were typically tested in half-logarithmic dilution series (1:3.33), starting at 10 μM or 100 μM as the highest compound concentration.” for “≤0.1%).”
as §4

[3] = system: alpha-smooth muscle actin (α-SMA); assay: Immunolocalization of alpha-smooth muscle actin in 2D fibroblast culture (myofibroblast differentiation); assay type: cell-based, human; details: TGF-ß 20 ng/ml
Procedure: as §1, with “The cells were allowed to adhere overnight and then incubated for 72 hours at 37° C. under the following conditions: graded compound concentrations or 20 ng/ml PDGF-BB (Tonbo Biosciences) in the absence or presence of different dilutions of sterile-filtered WE in medium.” left out
After fixation with paraformaldehyde, the cells were incubated for 1 hour at room temperature with a monoclonal mouse-anti-human antibody against alpha-smooth muscle actin (α-SMA) from e-Bioscience, washed 3 times with PBS and developed with an Alexa Fluor-labelled donkey-anti-mouse IgG (Molecular Probes). The cells were washed 3 times with PBS and examined in a Zeiss ZEISS Observer.Z1 microscope, using the software AxioVision 48.

[4] = presence of WE #78 (diabetic patient)
[5] = presence of wound exudate (WE) of patients, several or unspecified WE
[6] = absence of wound exudate (normal medium)
[7] = presence of ⅔ of the wound exudates tested

Oc1cccc2c(O)nccc12 [1,5-IQD, 1,5-Isoquinolinediol]
fibroblast (HDF) proliferation ([1]; presence of WE #43): less active or inactive
fibroblast (HDF) proliferation [1, 4]: less active or inactive

NC(=O)c1cccc(N)c1 [3-AB, 3-Aminobenzamide]
fibroblast (HDF) proliferation ([1]; presence of WE #43): less active or inactive
fibroblast (HDF) proliferation [1, 4]: less active or inactive

CN(C)Cc1ccc(-c2nc3cccc4c3n2CCNC4=O)cc1 [AG-14361]
IL-1ß secretion induced by wound exudate (IL-1ß): reducing IL-1ß secretion
cell proliferation under wound exudate-induced inhibition [1]: enhanced cell proliferation
fibroblast-derived matrix (FDM) formation ([2]; presence of WE #78 (FIG. 9)): strong positive effect

COC1CCN(C(=O)c2cc(Cc3n[nH]c(=O)c4ccccc34)ccc2F)CC1 [AZD-2461]
IL-1ß secretion induced by wound exudate (IL-1ß): reducing IL-1ß secretion
cell proliferation under wound exudate-induced inhibition [1]: enhanced cell proliferation
fibroblast-derived matrix (FDM) formation ([2]; presence of WE #78 (FIG. 9)): strong positive effect

CN(C)CC(=O)Nc1ccc2[nH]c(=O)c3ccccc3c2c1.Cl [PJ-34, N-(6-Oxo-5,6-dihydro-phenanthridin-2-yl)-N,N-dimethylacetamide.HCl]
fibroblast (HDF) proliferation ([1]; presence of WE #43): less active or inactive
fibroblast (HDF) proliferation [1, 4]: less active or inactive

C[C@H]1C[C@H]2[C@@H]3CCC4=CC(=O)C=C[C@]4(C)[C@@]3(Cl)[C@@H](O)C[C@]2(C)[C@@]1(O)C(=O)CO [beclomethasone]
fibroblast (HDF) proliferation [1, 5]: Qualitatively identical results

CC1(COc2ccc3c(c2)ncn3-c2ccc3cccc(N4CCC(N)CC4)c3n2)COC1 [crenolanib, Crenolanib]
effect on PDGF-enhanced proliferation ([1]; crenolanib 1 μM, PDGF 20 ng/ml, absence of WE (FIG. 19)): completely abrogated
fibroblast (HDF) proliferation [1, 4]: without any effect

C[C@@H]1C[C@H]2[C@@H]3C[C@H](F)C4=CC(=O)C(Cl)=C[C@]4(C)[C@@]3(F)[C@@H](O)C[C@]2(C)[C@@]1(O)C(=O)CO [halomethasone]
fibroblast (HDF) proliferation [1, 5]: Qualitatively identical results

C[C@]12CCC(=O)C=C1CC[C@@H]1[C@@H]2[C@@H](O)C[C@@]2(C)[C@H]1CC[C@]2(O)C(=O)CO [hydrocortisone, Hydrocortisone]
fibroblast (HDF) proliferation [1, 5]: Qualitatively identical results; also recorded: effect was confirmed

O=C(c1cc(Cc2n[nH]c(=O)c3ccccc23)ccc1F)N1CCN(C(=O)C2CC2)CC1 [olaparib]
IL-1ß secretion induced by wound exudate (IL-1ß): reducing IL-1ß secretion
cell proliferation under wound exudate-induced inhibition [1]: enhanced cell proliferation
HDF proliferation, PARP inhibitor plus PDGF [1]: even further enhanced by the addition of PDGF
fibroblast (HDF) proliferation [1, 4]: dose-dependent increase of HDF proliferation
fibroblast-derived matrix (FDM) formation ([2]; presence of WE #78 (FIG. 9)): strong positive effect

C[C@]12C=CC(=O)C=C1CC[C@@H]1[C@@H]2[C@@H](O)C[C@@]2(C)[C@H]1CC[C@]2(O)C(=O)CO [prednisolone, Prednisolone]
fibroblast (HDF) proliferation [1, 5]: Qualitatively identical results; also recorded: effect was confirmed

C[C@]12C=CC(=O)C=C1CC[C@@H]1[C@@H]2[C@@H](O)C[C@@]2(C)[C@H]1CC[C@]2(O)C(=O)CO [prelone]
fibroblast (HDF) proliferation [1, 5]: Qualitatively identical results

CNCc1ccc(-c2[nH]c3cc(F)cc4c3c2CCNC4=O)cc1 [rucaparib]
IL-1ß secretion induced by wound exudate (IL-1ß): reducing IL-1ß secretion
cell proliferation under wound exudate-induced inhibition [1]: enhanced cell proliferation
HDF proliferation, PARP inhibitor plus PDGF [1]: even further enhanced by the addition of PDGF
fibroblast (HDF) proliferation [1, 4]: dose-dependent increase of HDF proliferation
fibroblast-derived matrix (FDM) formation ([2]; presence of WE #78 (FIG. 9)): strong positive effect

O=C1O[C@H]([C@@H](O)CO)C(O)=C1O [vitamin C, ascorbic acid]
fibroblast (HDF) proliferation [1, 6]: enhances HDF proliferation/ECM formation; also recorded: enhances both fibroblast proliferation
enhancement of PARP inhibitor effect on fibroblast proliferation ([1]; WE #43, different patient (FIG. 15)): strong and consistent synergistic effect could be confirmed; also recorded: synergistically enhance the PARP inhibitor compound effects
enhancement of PARP inhibitor effect on fibroblast proliferation ([1]; dexamethasone 3 nM, vitamin C 100 μg/ml, WE #78 (FIG. 14)): enhance the positive enhancing effect of the PARP antagonists; also recorded: synergistically enhance the PARP inhibitor compound effects
fibroblast (HDF) proliferation [1, 7]: no effect on HDF proliferation/ECM formation; also recorded: no effect on fibroblast proliferation in the 2D assay
fibroblast-derived matrix (FDM/ECM) formation ([2]; absence of wound exudate): enhances both fibroblast proliferation in the fibroblast proliferation assay (also called 2D assay) and fibroblast-derived matrix (FDM) formation
fibroblast-derived matrix (FDM) formation [2, 7]: no effect on fibroblast proliferation in the 2D assay or fibroblast-derived matrix (FDM) formation in the 3D assay

Medroxyprogesterone
fibroblast (HDF) proliferation [1, 5]: Qualitatively identical results; also recorded: surprisingly enhances HDF proliferation and ECM formation; also recorded: effect was confirmed
FDM formation, veliparib combined with glucocorticoid [2]: enhance the effect of veliparib on rescuing fibroblast-derived matrix (FDM) formation after wound exudate treatment
FDM formation, veliparib combined with glucocorticoid ([2]; listed as MED): enhance the effect of veliparib on rescuing FDM formation after WE treatment
fibroblast-derived matrix (FDM/ECM) formation ([2]; presence of wound exudate, WE not specified (FIG. 6: microscopy)): surprisingly enhances HDF proliferation and ECM formation

TGF-ß: Transforming growth factor beta, protein growth factor
staining for α-SMA ([3]; absence of WE, veliparib 10 μM): increased the staining for the myofibroblast marker alpha-smooth muscle actin (α-SMA)
staining for α-SMA ([3]; presence of WE #78): does not induce α-SMA on its own; also recorded: did not induce α-SMA on its own

B1: PDGF: Platelet-derived growth factor, protein growth factor (Tonbo Biosciences) (protein, UniProt P01127 82-190, looked up)
Platelet-derived growth …: SLGSLTIAEPAMIAECKTRTEVFEISRRLIDRTNANFLVWPPCVEVQRCSGCCNNRNVQCRPTQVQLRPVQVRKIEIVRKKPIFKKATVTLEDHLACKCETVAAARPVT
modifications: PDGF-BB homodimer
HDF proliferation, PDGF added to talazoparib ([1]; PDGF 20 ng/ml + talazoparib 0.3 μM, WE #78 (FIG. 19)): further enhanced this recovery
fibroblast (HDF) proliferation [1, 6]: induces HDF proliferation; also recorded: enhances proliferation
fibroblast (HDF) proliferation [1, 4]: has no effect; also recorded: inactive; also recorded: without any effect
